Measurements: ChEMBL document CHEMBL1145363, “Discovery of 6-ethyl-2,4-diaminopyrimidine-based small molecule renin inhibitors” (Bioorg Med Chem Lett, 2007)
Converted amounts (≈) assume the structure as drawn.

How the values were obtained:
Renin = target: T1, Renin (Homo sapiens, UniProt P00797); assay: Inhibition of renin
T1 sequence (P00797 whole entry): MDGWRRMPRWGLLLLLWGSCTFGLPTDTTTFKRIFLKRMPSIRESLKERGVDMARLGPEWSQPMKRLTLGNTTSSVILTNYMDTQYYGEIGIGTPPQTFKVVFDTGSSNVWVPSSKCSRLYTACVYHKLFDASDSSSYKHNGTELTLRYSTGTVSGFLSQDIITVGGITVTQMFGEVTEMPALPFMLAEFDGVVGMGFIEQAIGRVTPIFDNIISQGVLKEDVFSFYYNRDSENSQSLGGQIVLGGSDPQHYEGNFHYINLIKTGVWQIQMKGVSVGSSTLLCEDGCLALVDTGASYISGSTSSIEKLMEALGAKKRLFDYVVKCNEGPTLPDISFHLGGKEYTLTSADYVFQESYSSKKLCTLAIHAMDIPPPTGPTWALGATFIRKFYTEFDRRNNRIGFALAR

[1] = Elimination half life in Sprague-Dawley rat; type: ADME, organism-based; conditions: in vivo
[2] = Plasma clearance in Sprague-Dawley rat; type: ADME, organism-based
[3] = Oral bioavailability in Sprague-Dawley rat; type: ADME, organism-based; conditions: in vivo
[4] = target: Cathepsin D (Homo sapiens) (UniProt P07339); assay: Inhibition of cathepsin D at 100 uM
Chain of Cathepsin D (Homo sapiens) (P07339 65-162 limits assumed): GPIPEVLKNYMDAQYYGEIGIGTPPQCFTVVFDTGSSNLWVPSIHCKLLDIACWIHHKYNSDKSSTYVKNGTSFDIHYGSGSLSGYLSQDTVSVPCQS
Chain of Cathepsin D (Homo sapiens) (P07339 169-412 limits assumed): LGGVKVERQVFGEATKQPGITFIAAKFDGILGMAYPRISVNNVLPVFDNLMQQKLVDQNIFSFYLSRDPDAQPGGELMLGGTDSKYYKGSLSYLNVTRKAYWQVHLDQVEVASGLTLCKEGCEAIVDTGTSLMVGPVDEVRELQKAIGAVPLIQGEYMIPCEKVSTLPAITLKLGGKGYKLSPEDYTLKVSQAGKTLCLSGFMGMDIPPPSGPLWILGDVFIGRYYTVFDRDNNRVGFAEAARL

Cytochrome P450 3A4 = Cytochrome P450 3A4 (Homo sapiens, UniProt P08684); assay: Inhibition of CYP3A4; type: ADME
Chain of Cytochrome P450 3A4 (P08684 whole entry): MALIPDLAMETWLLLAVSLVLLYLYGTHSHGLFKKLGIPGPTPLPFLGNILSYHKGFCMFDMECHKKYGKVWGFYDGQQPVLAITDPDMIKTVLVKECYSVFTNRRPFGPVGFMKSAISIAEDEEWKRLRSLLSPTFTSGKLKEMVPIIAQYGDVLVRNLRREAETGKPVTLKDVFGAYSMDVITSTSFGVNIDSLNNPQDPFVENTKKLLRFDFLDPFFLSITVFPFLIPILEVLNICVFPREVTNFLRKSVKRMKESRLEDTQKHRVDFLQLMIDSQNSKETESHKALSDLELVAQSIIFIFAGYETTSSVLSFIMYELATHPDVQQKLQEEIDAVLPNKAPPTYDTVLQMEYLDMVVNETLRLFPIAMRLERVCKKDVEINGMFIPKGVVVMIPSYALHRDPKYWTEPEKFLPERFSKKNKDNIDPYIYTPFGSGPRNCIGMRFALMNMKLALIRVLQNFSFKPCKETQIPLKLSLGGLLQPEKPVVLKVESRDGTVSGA

[5] = Solubility of the compound; type: physicochemical
Homo sapiens = species on record: Homo sapiens; assay: Inhibition of pepsin at 100 uM
[6] = Volume of distribution in Sprague-Dawley rat; type: ADME, organism-based; conditions: in vivo, read-out: Vdss
[7] = target: T2, Cathepsin E (Homo sapiens) (UniProt P14091); assay: Inhibition of cathepsin E at 100 uM
T2 sequence (whole entry): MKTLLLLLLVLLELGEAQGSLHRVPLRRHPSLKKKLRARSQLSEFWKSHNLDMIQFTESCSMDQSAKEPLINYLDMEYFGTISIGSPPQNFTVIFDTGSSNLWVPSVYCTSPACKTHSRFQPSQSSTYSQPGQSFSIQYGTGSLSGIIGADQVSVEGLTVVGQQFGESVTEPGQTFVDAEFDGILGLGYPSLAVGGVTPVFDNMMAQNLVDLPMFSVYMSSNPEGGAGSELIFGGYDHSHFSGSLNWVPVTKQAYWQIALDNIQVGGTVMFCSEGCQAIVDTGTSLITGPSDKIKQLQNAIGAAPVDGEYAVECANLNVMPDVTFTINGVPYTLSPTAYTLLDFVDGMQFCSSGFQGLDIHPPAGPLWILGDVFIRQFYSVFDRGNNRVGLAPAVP

[8] = Half life in human liver microsome; type: ADME; conditions: liver microsomes

Compound	IC50 (Renin) [nM]	half-life [1] [min]	clearance [2] [mL/min/kg]	bioavailability [3] [%]	inhibition [4] [%]	IC50 (Cytochrome P450 3A4) [nM]	solubility [5] [µg/mL]	inhibition (Homo sapiens) [%]	Vd [6] [L/kg]	inhibition [7] [%]	half-life [8] [min]
CCc1nc(N)nc(N)c1-c1ccc(NCc2ccc(Cl)c(Cl)c2)cc1	27000	–	–	–	–	–	–	–	–	–	–
CCc1nc(N)nc(N)c1-c1ccc2c(c1)N(CCCCC(=O)OC)CCC2	91	–	–	–	0	12000	–	0	–	0	5
CCc1nc(N)nc(N)c1-c1ccc2c(c1)N(CCCC(=O)OC)CCC2	120	–	–	–	0	–	–	0	–	0	5
COc1ccccc1COCCCOc1ccc(N2C(=O)CNC[C@@H]2COc2ccc3c(c2)N(CCNC(C)=O)CCC3)cc1	0.5	–	–	–	–	–	–	–	–	–	–
CCc1nc(N)nc(N)c1-c1ccc2c(c1)N(CCC(=O)OC)CCC2	198	–	–	–	0	10000	–	0	–	0	5

The remaining lines, values ahead:

IC50 (Renin) [nM]	half-life [1] [min]	clearance [2] [mL/min/kg]	bioavailability [3] [%]	inhibition [4] [%]	IC50 (Cytochrome P450 3A4) [nM]	solubility [5] [µg/mL]	inhibition (Homo sapiens) [%]	Vd [6] [L/kg]	inhibition [7] [%]	half-life [8] [min]	Compound
0.067	–	–	–	–	–	–	–	–	–	–	COC[C@@H](O)CO[C@@H]1CNC[C@H](OCc2cc(OC)c3ccccc3c2)[C@H]1c1ccc(OCCCOCc2ccccc2OC)cc1
650	66.6	36.8	< 10	0	2800	59.3 (≈ 174 µM)	0	1.6	0	–	CCc1nc(N)nc(N)c1-c1ccc2c(c1)N(CCCOC)CCC2
4000	–	–	–	–	–	–	–	–	–	–	CCc1nc(N)nc(N)c1-c1ccc(NCc2cc(F)cc(F)c2)cc1
178	–	–	–	0	8000	–	0	–	0	–	CCc1nc(N)nc(N)c1-c1ccc2c(c1)N(CCNC(C)=O)CCC2
